{"source": "patent US20220265629A1", "about": "“TREATMENT OF SYSTOLIC DYSFUNCTION AND HEART FAILURE WITH REDUCED EJECTION FRACTION WITH THE COMPOUND (R)-4-(1-((3-(DIFLUOROMETHYL)-1-METHYL-1H-PYRAZOL-4-YL)SULFONYL)-1-FLUOROETHYL)-N-(ISOXAZOL-3-YL)PIPERIDINE-1-CARBOXAMIDE” (MyoKardia, Inc., priority 2019, published 2022)", "test": "HFrEF study Part 2 (MAD Cohorts A-D): plasma pharmacokinetics", "assay_type": "in vivo, human", "conditions": "for Plasma concentration, Mean / Plasma concentration, Median: MAD cohorts; for AUC / Cmax / half-life: human, plasma, oral; for half-life: read-out: t1/2, λz (converted)", "from_the_text": "This was a randomized, parallel-group, DB, placebo-controlled, adaptive design, sequential ascending (oral) multiple-close study in stable patients with heart failure. Four MAD Cohorts (A, B, C, D) were enrolled (FIG. 5B). An SRC reviewed results from each cohort and determined the close and confirmed initial sample size for the subsequent cohort. Additionally, the first 3 patients in each cohort had LVEF≥25%; the SRC reviewed preliminary safety data from these patients and decided whether to open cohort enrollment to patients with LVEF<25%.\nAfter Screening and qualification, patients were confined to a clinical testing facility from Day 1 (Check-in) to Day 11. Each patient initially received placebo BID for 2 days (Days 1 and 2) in single-blinded manner (“run-in” during acclimatization to confinement in the Clinical Testing Unit) prior to receiving the randomized DB study drug treatment on Day 3. All patients then received either placebo or active Compound I for 7 days (Days 3 through 9), with a follow-up period with patients discharged from the unit on Day 11. A final follow-up clinic visit was conducted on Day 16. More than one patient could be closed in a cohort at the same time or during the same week depending on administrative issues, i.e., capacity and scheduling.\nPatients were closed twice daily (every 12 hours). Doses could occur±2 hours from scheduled dosing times as long as closes were separated by at least 10 hours and by no more than 14 hours. The exception to the twice daily dosing was on Day 9 (last dose of randomized DB study drug treatment). On Day 9, a single morning close was administered.\nDuring the study, multiple evaluations were performed that included: serial TTE assessments (11-14 TTEs per patient on Days 1, 2, 3, 4, 7, 9, 10 and 11); PK sampling (PK sample collected concomitantly with every post-randomization echocardiogram); ECGs (on Days 2, 3, 4, 7, 9, 10, 11 and 16); troponin (collected concomitantly with every post-randomization ECG); and safety laboratory assessments. Confined patients underwent continuous telemetry. Holter monitoring was performed in all patients at baseline (Days 1-2) and at the end of double-blind treatment (Days 7-9). Vital signs were collected daily.\nStudy medication consisted of Compound I 5 mg tablets, 25 mg tablets, 100 mg tablets, or matching placebo tablets. In Part 1 (SAD), Compound I or placebo was administered after an overnight fast (at least 6 hours), while in Part 2 (MAD), Compound I was administered after a 2 hour fast (Cohort A) or with food (Cohorts B, C, and D). The close was ingested with a minimum of 240 mL of water, but more water was ingested as needed. The entire close was administered over a period of up to 15 minutes. The time of close used to determine future assessments was the time the last tablet was taken. In the cohorts for Part 2 (MAD), a BID regimen was used.\nIn Part 2 (MAD), Cohort A patients fasted for 2 hours before and 2 hours after dosing. For example, if morning dosing occurred at 8 AM, patients could have a snack at 6 AM and a full breakfast at 10 AM. If afternoon dosing occurred at 8 PM, patients could have dinner at 6 PM and a snack at 10 PM. […] Cohort B, C, and D patients ingested food with each close.", "key": {"[1]": {"conditions": "MAD Cohort C, 75 mg BID (with food), individual subjects"}, "[2]": {"conditions": "MAD Cohort D, 100 mg BID (with food), Mean"}, "[3]": {"conditions": "plasma concentration group 2000-<3500 ng/mL (n = 26)"}, "[4]": {"conditions": "plasma concentration group <2000 ng/mL (n = 30)"}, "[5]": {"conditions": "plasma concentration group ≥3500 ng/mL (n = 13)"}}, "note": "Values joined by “and” are separate entries in the source; they are usually repeats but may differ in a detail not shown here. Equal values may be shown once. Read-outs that look alike come from different tables or passages of the source."}
{"smiles": "Cn1cc(S(=O)(=O)[C@@](C)(F)C2CCN(C(=O)Nc3ccon3)CC2)c(C(F)F)n1", "note": "[Compound I, (R)-4-(1-((3-(difluoromethyl)-1-methyl-1H-pyrazol-4-yl)sulfonyl)-1-fluoroethyl)-N-(isoxazol-3-yl)piperidine-1-carboxamide]", "values": [{"measurement": "Cmax, Day 1", "setting": "[1]", "result": "1020 ng/mL and 1190 ng/mL and 1030 ng/mL and 1150 ng/mL and 1650 ng/mL and 1360 ng/mL"}, {"measurement": "Cmax, SS", "setting": "[1]", "result": "3860 ng/mL and 1840 ng/mL and 3810 ng/mL and 4140 ng/mL and 4940 ng/mL and 3220 ng/mL and 3930 ng/mL and 4720 ng/mL and 5010 ng/mL"}, {"measurement": "Cmin, SS", "setting": "[1]", "result": "1740 ng/mL and 954 ng/mL and 2660 ng/mL and 3240 ng/mL and 3910 ng/mL and 2530 ng/mL and 2440 ng/mL and 3930 ng/mL and 3900 ng/mL"}, {"measurement": "t1/2, λz", "setting": "[1]", "result": "13.55 h and 15.34 h and 20.46 h and 23.11 h and 41.54 h and 15.67 h and 13.72 h and 30.37 h and 24.06 h"}, {"measurement": "AUC_TAU", "setting": "MAD Cohort C, 75 mg BID (with food), steady state, individual subjects", "result": "32340 ng·h/mL and 15700 ng·h/mL and 37520 ng·h/mL and 44850 ng·h/mL and 53180 ng·h/mL and 35560 ng·h/mL and 38470 ng·h/mL and 51200 ng·h/mL and 53690 ng·h/mL"}, {"measurement": "Accumulation Ratio AUC tau", "setting": "[2]", "result": 4.65}, {"measurement": "Accumulation Ratio Cmax", "setting": "[2]", "result": 3.89}, {"measurement": "Accumulation_Index", "setting": "[2]", "result": 3.30}, {"measurement": "Cavg, ss", "setting": "[2]", "result": 5030, "unit": "ng/mL"}, {"measurement": "Cmin, SS", "setting": "[2]", "result": 4333, "unit": "ng/mL"}, {"measurement": "Plasma concentration, Mean", "setting": "[3]", "result": 2716, "unit": "ng/mL"}, {"measurement": "Plasma concentration, Median", "setting": "[3]", "result": 2740, "unit": "ng/mL"}, {"measurement": "Plasma concentration, Mean", "setting": "[4]", "result": 1169, "unit": "ng/mL"}, {"measurement": "Plasma concentration, Median", "setting": "[4]", "result": 1220, "unit": "ng/mL"}, {"measurement": "Plasma concentration, Mean", "setting": "[5]", "result": 4448, "unit": "ng/mL"}, {"measurement": "Plasma concentration, Median", "setting": "[5]", "result": 4290, "unit": "ng/mL"}, {"measurement": "AUC", "setting": "50 mg, MAD Cohort B, 50 mg BID (with food), Mean, read-out: AUCtau, Day 1", "result": 7300, "unit": "ng·h/mL"}, {"measurement": "Cmax", "setting": "50 mg, MAD Cohort B, 50 mg BID (with food), Mean, read-out: Cmax, Day 1", "result": 806, "unit": "ng/mL"}, {"measurement": "Cmax", "setting": "50 mg, MAD Cohort B, 50 mg BID (with food), Mean, read-out: Cmax, SS", "result": 2770, "unit": "ng/mL"}, {"measurement": "half-life", "setting": "50 mg, MAD Cohort B, 50 mg BID (with food), Mean", "result": 1510, "unit": "min"}, {"measurement": "AUC", "setting": "50 mg, MAD Cohort B, 50 mg BID (with food), individual subjects, read-out: AUCtau, Day 1", "result": 7430, "unit": "ng·h/mL"}, {"measurement": "Cmax", "setting": "50 mg, MAD Cohort B, 50 mg BID (with food), individual subjects, read-out: Cmax, Day 1", "result": 933, "unit": "ng/mL"}, {"measurement": "Cmax", "setting": "50 mg, MAD Cohort B, 50 mg BID (with food), individual subjects, read-out: Cmax, SS", "result": 2950, "unit": "ng/mL"}, {"measurement": "AUC", "setting": "50 mg, MAD Cohort B, 50 mg BID (with food), steady state, Mean, read-out: AUC_TAU", "result": 28900, "unit": "ng·h/mL"}, {"measurement": "AUC", "setting": "50 mg, MAD Cohort B, 50 mg BID (with food), steady state, individual subjects, read-out: AUC_TAU", "result": 29700, "unit": "ng·h/mL"}, {"measurement": "AUC", "setting": "75 mg, MAD Cohort A, 75 mg BID (4 h fasting), Mean, read-out: AUCtau, Day 1", "result": 10400, "unit": "ng·h/mL"}, {"measurement": "Cmax", "setting": "75 mg, MAD Cohort A, 75 mg BID (4 h fasting), Mean, read-out: Cmax, Day 1", "result": 1120, "unit": "ng/mL"}, {"measurement": "Cmax", "setting": "75 mg, MAD Cohort A, 75 mg BID (4 h fasting), Mean, read-out: Cmax, SS", "result": 4050, "unit": "ng/mL"}, {"measurement": "half-life", "setting": "75 mg, MAD Cohort A, 75 mg BID (4 h fasting), Mean", "result": 1280, "unit": "min"}, {"measurement": "AUC", "setting": "75 mg, MAD Cohort A, 75 mg BID (4 h fasting), individual subjects, read-out: AUCtau, Day 1", "result": 10600, "unit": "ng·h/mL"}, {"measurement": "Cmax", "setting": "75 mg, MAD Cohort A, 75 mg BID (4 h fasting), individual subjects, read-out: Cmax, Day 1", "result": 1060, "unit": "ng/mL"}, {"measurement": "Cmax", "setting": "75 mg, MAD Cohort A, 75 mg BID (4 h fasting), individual subjects, read-out: Cmax, SS", "result": 4580, "unit": "ng/mL"}, {"measurement": "AUC", "setting": "75 mg, MAD Cohort A, 75 mg BID (4 h fasting), steady state, Mean, read-out: AUC_TAU", "result": 41000, "unit": "ng·h/mL"}, {"measurement": "AUC", "setting": "75 mg, MAD Cohort A, 75 mg BID (4 h fasting), steady state, individual subjects, read-out: AUC_TAU", "result": 46200, "unit": "ng·h/mL"}, {"measurement": "AUC", "setting": "75 mg, MAD Cohort C, 75 mg BID (with food), Mean, read-out: AUCtau, Day 1", "result": 10600, "unit": "ng·h/mL"}, {"measurement": "Cmax", "setting": "75 mg, MAD Cohort C, 75 mg BID (with food), Mean, read-out: Cmax, Day 1", "result": 1250, "unit": "ng/mL"}, {"measurement": "Cmax", "setting": "75 mg, MAD Cohort C, 75 mg BID (with food), Mean, read-out: Cmax, SS", "result": 3940, "unit": "ng/mL"}, {"measurement": "half-life", "setting": "75 mg, MAD Cohort C, 75 mg BID (with food), Mean", "result": 1320, "unit": "min"}, {"measurement": "Cmax", "setting": "75 mg, MAD Cohort C, 75 mg BID (with food), individual subjects, read-out: Cmax, Day 1", "result": 1780, "unit": "ng/mL"}, {"measurement": "AUC", "setting": "75 mg, MAD Cohort C, 75 mg BID (with food), steady state, Mean, read-out: AUC_TAU", "result": 40300, "unit": "ng·h/mL"}, {"measurement": "AUC", "setting": "100 mg, MAD Cohort D, 100 mg BID (with food), Mean, read-out: AUCtau, Day 1", "result": 12900, "unit": "ng·h/mL"}, {"measurement": "Cmax", "setting": "100 mg, MAD Cohort D, 100 mg BID (with food), Mean, read-out: Cmax, Day 1", "result": 1480, "unit": "ng/mL"}, {"measurement": "Cmax", "setting": "100 mg, MAD Cohort D, 100 mg BID (with food), Mean, read-out: Cmax, SS", "result": 5680, "unit": "ng/mL"}, {"measurement": "half-life", "setting": "100 mg, MAD Cohort D, 100 mg BID (with food), Mean", "result": 1380, "unit": "min"}, {"measurement": "AUC", "setting": "100 mg, MAD Cohort D, 100 mg BID (with food), individual subjects, read-out: AUCtau, Day 1", "result": 11600, "unit": "ng·h/mL"}, {"measurement": "Cmax", "setting": "100 mg, MAD Cohort D, 100 mg BID (with food), individual subjects, read-out: Cmax, Day 1", "result": 1560, "unit": "ng/mL"}, {"measurement": "Cmax", "setting": "100 mg, MAD Cohort D, 100 mg BID (with food), individual subjects, read-out: Cmax, SS", "result": 5210, "unit": "ng/mL"}, {"measurement": "half-life", "setting": "100 mg, MAD Cohort D, 100 mg BID (with food), individual subjects", "result": 1460, "unit": "min"}, {"measurement": "AUC", "setting": "100 mg, MAD Cohort D, 100 mg BID (with food), steady state, Mean, read-out: AUC_TAU", "result": 60400, "unit": "ng·h/mL"}]}
